Source: publication PMC7076352 (Pharmaceutics, 2020)
Where two headings read alike, the source gives them in different places.

Experiments:
CYP2C19 [1] = test: In vitro cocktail CYP450 activity assay in rat liver microsomes, CYP2C19 (omeprazole probe); conditions: SD, rat, pooled rat liver microsomes, pH 7.4, probe omeprazole
Outline: (§1)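 Probe substrates were pooled in a single microsomal incubation, with each substrate concentration optimized to keep metabolite formation linear. Metabolites were quantified against isotope-labelled internal standards: hydroxybupropion-[D6] (OHBUP-[D6]) and 5 nM 4′-hydroxydiclofenac-[^13C6] (OHDIC-[^13C6]).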

CYP2C19 [2] = conditions: read-out: Reported Km; probe substrate OME, CYP2C19, literature range ref 9; cited from earlier work
CYP2D6 [3] = test: in vitro; conditions: SD, rat, pH 7.4
Outline: as §1

CYP2D6 [4] = conditions: read-out: Reported Km; probe substrate DEX, CYP2D6, literature range ref 9; cited from earlier work

Row | Structure (SMILES) | Km at 15 min (CYP2C19 [1]) | Km (CYP2C19 [2]) | Km (CYP2D6 [3]) | Km (CYP2D6 [4])
1 | COc1ccc2[nH]c([S+]([O-])Cc3ncc(C)c(OC)c3C)nc2c1 (stereo not shown) [OME, omeprazole, reference compound] | 7.8 ± 1.65 µM | 17 to 26 µM | – | –
2 | COc1ccc2c(c1)[C@]13CCCC[C@@H]1[C@H](C2)N(C)CC3 [DEX, dextromethorphan, reference compound] | – | – | 0.62 ± 0.08 µM | 0.44 to 8.5 µM
